The source of these data is article PMC8929122, “Application of a Combined Peptidomics and In Silico Approach for the Identification of Novel Dipeptidyl Peptidase-IV-Inhibitory Peptides in In Vitro Digested Pinto Bean Protein Extract” (Current Issues in Molecular Biology, 2021).

Peptide text beside a SMILES is read from it.

For assay [1], the system named is Dipeptidyl peptidase IV (DPP-IV). The conditions noted are these: Parmigiano Reggiano peptides, previous study; cited from earlier work. From the text:
Table 1 Peptides with previously reported biological activity identified in in vitro-digested Pinto bean protein extract. | column: Bioactivity ^1 || The described approach was applied in a previous study on Parmigiano Reggiano samples allowing the selection of 6 candidates to be tested in vitro starting from a pool of 415 peptides identified by peptidomics techniques. […] The high inhibitory potency of SAPI was probably due to the combined presence of an A residue in second position and a P residue in third position. […] The PepSite2 server was used to predict the possible interaction between SAPI and the DPP-IV binding sites by analyzing the enzyme active site residues closer to the peptide amino ...

Assay [2] addresses T1, rat intestinal DPP-IV (Rattus norvegicus, UniProt P14740).
T1 construct: 10 μL of rat intestinal DPP-IV (0.1 U/mL in the assay); from tissue; host or cells: rat intestine
Put plainly: In vitro DPP-IV inhibitory activity of synthetic peptides. The conditions noted are these: rat intestinal DPP-IV 0.1 U/mL; 0.1 mol/L Tris-HCl pH 7.0; 20 min pre-incubation at 37 °C; glycine-proline-p-nitroanilide 6.4 mmol/L (5 μL); 20 min reaction at 37 °C; absorbance 405 nm; mean ± SD, three replicates; read-out: IC50 value for DPP-IV inhibition. Format: biochemical. The procedure: Selected synthetic peptides (Bio-Fab Research, Rome, Italy) were then tested for their DPP-IV-inhibitory activity as reported in Tagliazucchi et al.. Briefly, 145 μL of 0.1 mol/L Tris-HCl buffer (pH 7.0) were mixed with 10 μL of rat intestinal DPP-IV (0.1 U/mL in the assay) and 40 μL of synthetic peptides at different concentrations, in a 96-well plate. The reaction was started after 20 min of pre-incubation at 37 °C by the addition of 5 μL of 6.4 mmol/L glycine-proline-p-nitroanilide. After a further 20 min of reaction at 37 °C, the amount of released p-nitroanilide was measured by reading the absorbance at 405 nm in a microplate reader. Results were expressed as IC50 values (peptide concentration that inhibit the 50% of the enzymatic activity) by plotting the peptide concentration (base-10 logarithm) as a function of the enzyme inhibition percentage.
All data are reported as mean ± standard deviation (SD) for three replicates for each prepared sample. GraphPad Prism 6.0 (GraphPad Software, San Diego, CA, USA) was used for univariate analysis of variance (ANOVA) with Tukey post-hoc test. The differences were considered significant when p < 0.05.

T1 sequence (P14740 whole entry): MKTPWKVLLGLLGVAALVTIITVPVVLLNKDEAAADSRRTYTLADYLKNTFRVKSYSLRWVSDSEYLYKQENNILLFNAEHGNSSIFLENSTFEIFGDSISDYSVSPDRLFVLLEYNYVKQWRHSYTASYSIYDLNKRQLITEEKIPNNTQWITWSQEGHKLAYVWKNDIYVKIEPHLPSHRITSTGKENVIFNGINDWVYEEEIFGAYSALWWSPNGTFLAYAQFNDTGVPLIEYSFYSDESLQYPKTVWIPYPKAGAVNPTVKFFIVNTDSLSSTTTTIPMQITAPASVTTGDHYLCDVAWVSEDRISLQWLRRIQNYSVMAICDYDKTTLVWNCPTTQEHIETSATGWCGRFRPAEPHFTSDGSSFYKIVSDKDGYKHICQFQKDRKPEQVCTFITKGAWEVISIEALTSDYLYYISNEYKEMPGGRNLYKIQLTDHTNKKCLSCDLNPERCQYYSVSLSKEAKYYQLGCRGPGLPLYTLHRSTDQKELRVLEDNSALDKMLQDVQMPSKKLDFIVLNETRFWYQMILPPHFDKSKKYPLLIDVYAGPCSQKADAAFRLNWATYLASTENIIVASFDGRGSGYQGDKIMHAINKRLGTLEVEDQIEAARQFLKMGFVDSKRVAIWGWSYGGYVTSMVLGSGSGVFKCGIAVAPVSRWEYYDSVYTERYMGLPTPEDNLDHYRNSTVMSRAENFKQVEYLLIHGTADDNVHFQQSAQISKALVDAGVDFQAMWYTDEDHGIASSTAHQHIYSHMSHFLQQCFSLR

Take APFPE: the “DPP-IV inhibition (in words)” value in assay [1] is “novel potent DPP-IV inhibitor”.

With `CC[C@H](C)[C@H](NC(=O)[C@@H](N)CO)C(=O)N1CCC[C@H]1C(=O)N[C@@H](CCCNC(=N)N)C(=O)O` [SIPR] (H-SIPR-OH), in assay [2], the IC50 (in general, the concentration that gives 50% inhibition) was found to be 189 ± 1.5 µM.

Consider `CC[C@H](C)[C@H](NC(=O)[C@@H]1CCCN1C(=O)[C@H](C)NC(=O)[C@@H](N)CO)C(=O)O` [SAPI] (H-SAPI-OH), for which, in assay [2], the half-maximal inhibitory concentration (IC50) stood at 57.7 µM.

For `CC(C)[C@H](NC(=O)[C@@H](N)Cc1ccccc1)C(=O)N1CCC[C@H]1C(=O)N[C@@H](Cc1c[nH]cn1)C(=O)O` [FVPH] (H-FVPH-OH), the IC50 in assay [2] is 480.6 ± 2.1 µM.
